Measured values: article PMC8508710, “Biochemical Characterization of 13-Lipoxygenases of Arabidopsis thaliana” (International Journal of Molecular Sciences, 2021)

Test system: pea root LOX
Assay: Ex vivo pea root extract LOX activity, oxygen electrode
Assay type: biochemical, Pisum sativum
Settings: 36 µg pea root extract pretreated with 1 mM 12-OPDA
Method: To evaluate 12-OPDA as a LOX inhibitor under native conditions, we employed pea roots as a plant LOX source. The reliability was assessed with the criterion that an increase in A234nm and, ideally, oxygen consumption occurred via the injection of plant tissue extract (0.5–2 µg/µL protein in 50 mM Tris-HCl or K-Pi, pH 6.6–8.0) in LeA (tested at 4–100 µM). […] Pea seeds (Pisum sativum “Kleine Rheinländerin”) were placed in darkness for 4 days on moist paper. The emerged roots were cut, frozen in liquid N2, and stored at −80 °C. Frozen tissue (~50 mg/mL) was pulverized in a pre-chilled mortar and immediately ground with 50 mM Tris-HCl, pH 7.2. […]
The immunological detection of 13-LOX was performed, based on. […] After 1 h blocking with blocking solution (1% (w/v) non-fat dry milk in TBST (150 mM NaCl, 50 mM Tris-HCl, pH 7.5, 0.05% tween 20)) and overnight incubation (4 °C) with LOX2 (At3g45140) serum (Agrisera, AS07 258, 1:25,000 in blocking solution), the blot was washed with TBST and incubated (2 h, 25 °C) with horseradish peroxidase-coupled anti-rabbit IgG as second antibody (1:20,000 in blocking solution) for the subsequent luminescence detection of immunodecorated LOX on X-ray films (30 s incubation). […] The mixture was injected in 1.8 mL of 20 µM LeA (in 50 mM Tris-HCl, pH 7.2) and recorded for oxygen consumption.

Compound: CCC=CCC1C(=O)C=CC1CCCCCCCC(=O)O (stereo not drawn) [12-OPDA, cis-(+)-12-oxophytodienoic acid]
- Inhibition of activity (20 µM LeA): about 43%
- Oxygen consumption (control 4.6 ± 0.5): 2.0 ± 0.5 nmol/mL/min
